Target: T1, Gamma-aminobutyric acid receptor subunit rho-3 (Homo sapiens, UniProt A8MPY1)
T1 sequence (A8MPY1 whole entry): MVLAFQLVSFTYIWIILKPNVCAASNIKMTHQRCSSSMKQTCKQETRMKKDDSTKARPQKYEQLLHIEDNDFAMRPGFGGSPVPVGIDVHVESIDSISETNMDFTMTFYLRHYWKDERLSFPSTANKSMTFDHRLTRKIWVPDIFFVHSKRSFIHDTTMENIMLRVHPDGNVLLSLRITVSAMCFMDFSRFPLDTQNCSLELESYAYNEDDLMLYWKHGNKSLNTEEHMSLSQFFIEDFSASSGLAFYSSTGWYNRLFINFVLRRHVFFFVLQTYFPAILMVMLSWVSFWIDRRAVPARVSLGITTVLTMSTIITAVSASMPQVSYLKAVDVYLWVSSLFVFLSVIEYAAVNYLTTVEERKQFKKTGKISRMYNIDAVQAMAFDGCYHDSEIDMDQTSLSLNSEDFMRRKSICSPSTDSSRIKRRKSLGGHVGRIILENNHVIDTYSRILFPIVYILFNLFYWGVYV

Row | SMILES | Ki [nM]
1 | NCCCC(=O)O [4-amino-n-[2,3-3H]butyric acid] | 580
2 | O=C(O)C1=CCNCC1 [1,2,3,6-Tetrahydro-pyridine-4-carboxylic acid] | > 10000
3 | NCc1cc(=O)[nH]o1 | 460
4 | O=C(O)Cc1c[nH]cn1 [1H-imidazol-4-ylacetic acid] | 150
5 | N[C@@H]1C(=O)N2C(C(=O)O)=C(CSc3cnn[nH]3)CS[C@H]12 [CAS_37539-03-0] | 360

From BindingDB's records for doi:10.1124/mol.58.6.1375 (University of Alabama At Birmingham, 2000)
